# Results: patent US20100009956A1, “NOVEL SUBSTITUTED PYRIMIDINES AS CYSTEINE PROTEASE INHIBITORS” (Glaxo Group Limited , a corporation, priority 2006, published 2010)
# Structures can show the parent of a compound that is named as a salt. Where two headings read alike, the source gives them in different places.
# Assays:
# Falcipain-2 = Falcipain-2 (Plasmodium falciparum, UniProt Q8I6U4); test: Falcipain-2 enzymatic assay (assay 1); format: biochemical
# Outline: (§1)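 Recombinant parasite enzyme with 30 uM H-D-VLR-AFC in 100 mM sodium acetate pH 5.5, 10 mM DTT, 0.5 mM CHAPS, 1% DMSO, ambient temperature. Endpoint after 60 minutes, quenched with 16.6 uM E-64; AFC fluorescence (ex 405/em 530). IC50 from four-parameter fit, apparent KI assuming competitive inhibition.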
# Falcipain-3 = Falcipain-3 (Plasmodium falciparum, UniProt Q8IIL0); test: Falcipain-3 enzymatic assay (assay 1); format: biochemical
# Outline: as §1
# Cathepsin K = biological target: T1, Cathepsin K (Homo sapiens, UniProt P43235); test: Cathepsin K enzymatic assay (assay 1); format: biochemical; conditions: human recombinant enzyme, Z-FR-AFC substrate, pH 5.5
# T1 sequence (P43235 115-329): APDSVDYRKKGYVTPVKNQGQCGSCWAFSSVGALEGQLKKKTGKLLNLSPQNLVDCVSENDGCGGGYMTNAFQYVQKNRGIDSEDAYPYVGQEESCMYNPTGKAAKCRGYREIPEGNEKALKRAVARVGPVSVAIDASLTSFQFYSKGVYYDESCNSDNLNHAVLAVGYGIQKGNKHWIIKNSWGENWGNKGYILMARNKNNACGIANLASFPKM
# Outline: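 Human recombinant cathepsin K was assayed with the fluorogenic substrate Z-FR-AFC at 20 uM in 100 mM sodium acetate, pH 5.5, with 5 mM L-cysteine, 1 mM CHAPS, 5 mM EDTA and 1% DMSO. Enzyme plus substrate was added to wells holding inhibitor in DMSO. After 60 minutes at ambient temperature, 16.6 uM E-64 quenched the reaction. AFC fluorescence (excitation 405 nm, emission 530 nm) was read, and IC50 came from a four-parameter dose-response fit.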
# Cathepsin S = Cathepsin S (Homo sapiens, UniProt P25774); test: Cathepsin S enzymatic assay (assay 1); format: biochemical; conditions: human recombinant enzyme, KQKLR-AMC substrate, pH 6.5
# Protocol: Assay 1) Determination of Falcipain-2, Falcipain-3, Vivapain-2, Cathepsin K Cathepsin S, Cathepsin L, and Cathepsin B Proteolytic Catalytic Activity
# Assays for Falcipain-2, Falcipain-3, and Vivapain-2 are carried out with parasitic recombinant enzymes. Cathepsins K, S, L, and B are carried out with human recombinant enzymes. Standard assay conditions for the determination of kinetic constants used a fluorogenic peptide substrate, typically H-D-VLR-AFC (Falcipain-2, Falcipain-3, Vivapain-2), Z-FR-AFC (Cathepsin K, L, B), or KQKLR-AMC (Cathepsin S) and are determined in 100 mM sodium acetate, pH 5.5, containing 10 mM DTT and 0.5 mM CHAPS (Falcipain-2, Falcipain-3, Vivapain-2), and 100 mM sodium acetate, pH 5.5, containing 5 mM L-cysteine, 1 mM CHAPS and 5 mM EDTA (Cathepsin K, L, B), or 50 mM MES, pH 6.5, containing 0.5 mM CHAPS, 10 mM L-CYS, 5 mM EDTA (Cathepsin S). Stock substrate solutions are prepared at 20 mM in DMSO. The activity assays contained 30 uM substrate (Falcipain-2, Falcipain-3, Vivapain-2), 20 uM substrate (Cathepsin K), 25 uM substrate (Cathepsin B), 5 uM substrate (Cathepsin L), and 30 uM substrate (Cathepsin S). All assays contained 1% DMSO. […] All assays are conducted at ambient temperature as end point assays being quenched after 60 minutes with the exception of Cathepsin S at 90 minutes, with 16.6 uM E-64 in 1% DMSO. Product formation (AFC or AMC) is determined from fluorescence (excitation at 405 nm; emission at 530 nm, AFC, or excitation at 360 nm; emission at 460 nm, AMC) monitored with a LJL Aquest (Molecular Devices) fluorescent plate reader. In the case of kinetic reads (used in mechanism of action studies), the reaction is not quenched but is read in the plate reader every 3 minutes for approximately 90 minutes. In addition, the mechanism of action studies for Falcipain-2 utilize Z-LR-AMC as the substrate. Product formation is determined from the fluorescence of AMC, measured with a LJL Acquest (Molecular Devices) fluorescent plate reader (excitation at 360 nm; emission at 460 nm).
# Potential inhibitors are evaluated using the quenched read (endpoint) method. Assays are carried out in the presence of variable concentrations of test compound. Reactions are initiated by addition of enzyme and substrate to wells containing inhibitor stamped in 100% DMSO. For endpoint assays, the reaction is quenched with the addition of E64. Dose response data is fit to an IC50 curve with preset fitting tools according to equation 1:
# y=a+(b−a)/(1+(10^x/10^c)^d) (1)
# where y is the response at a particular inhibitor concentration x, a is the minimum response value, b is the maximum response value, c is the IC50, and d is the slope of the IC50 curve. Assuming the compound is a competitive inhibitor, the apparent KI can be calculated from IC50, as shown in equation 2: […]
# [1] = system: Plasmodium falciparum parasite; test: Whole cell assay (assay 2); format: cell-based; conditions: Plasmodium falciparum
# Description: Assay 2) Determination of Whole Cell Activity Against the Plasmodium falciparum Parasite
# Compounds can be evaluated for whole cell actvity against the Plasmodium falciparum parasite according to the procedure described in Sijwali S. and Rosenthal P. J., (2004) Proceedings of the National Academy of Sciences of the United States of America (PNAS) 101 (13), 4384-4389 (see in particular “Measurement of Parasite Growth rates and Inhibitor Sensitivity” on page 4385); IC50 values can be calculated as described in Singh A. and Rosenthal P. J., (2001) Antimicrobial Agents and Chemotherapy 45(3), 949-951 (see in particular page 950, first column); synchronised parasites can be prepared as described in Divo A. A. et al., (1985) Protozool. 32, 59-64.
# [2] = parasitic recombinant enzyme, H-D-VLR-AFC substrate, pH 5.5, endpoint read, read-out: Falcipain-3 IC50
# Chain of Falcipain-3 (Q8IIL0 243-492): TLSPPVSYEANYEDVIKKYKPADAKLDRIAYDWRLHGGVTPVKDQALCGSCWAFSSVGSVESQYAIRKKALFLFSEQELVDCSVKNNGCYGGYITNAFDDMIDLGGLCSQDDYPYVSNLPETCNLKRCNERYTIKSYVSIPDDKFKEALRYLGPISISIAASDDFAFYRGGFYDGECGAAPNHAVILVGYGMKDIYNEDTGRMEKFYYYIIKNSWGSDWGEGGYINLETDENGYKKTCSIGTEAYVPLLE
# Chain of Falcipain-2 (Q8I6U4 244-484): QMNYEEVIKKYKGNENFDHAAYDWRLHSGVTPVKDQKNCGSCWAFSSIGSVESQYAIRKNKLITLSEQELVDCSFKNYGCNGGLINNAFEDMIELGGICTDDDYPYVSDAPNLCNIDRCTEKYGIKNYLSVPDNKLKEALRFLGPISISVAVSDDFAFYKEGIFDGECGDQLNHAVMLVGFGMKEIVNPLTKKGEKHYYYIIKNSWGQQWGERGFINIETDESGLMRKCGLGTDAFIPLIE
# Chain of Cathepsin S (P25774 115-331): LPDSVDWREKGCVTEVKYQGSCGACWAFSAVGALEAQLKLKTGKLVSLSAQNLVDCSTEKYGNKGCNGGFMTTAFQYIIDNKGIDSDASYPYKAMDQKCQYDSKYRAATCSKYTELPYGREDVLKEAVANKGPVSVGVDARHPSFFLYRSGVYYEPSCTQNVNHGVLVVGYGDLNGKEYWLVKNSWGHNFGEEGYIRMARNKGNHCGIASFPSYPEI
Structure (SMILES),IC50 (Falcipain-2),IC50 (Falcipain-3),IC50 (Cathepsin K),IC50 (Cathepsin S),IC50 (Falcipain-3; [2]),"IC50 (Falcipain-2; parasitic recombinant enzyme, H-D-VLR-AFC substrate, pH 5.5, endpoint read, read-out: Falcipain-2 IC50)",IC50 [1]
"CC1CCC(N(NC(=O)c2ccc(CN3CCC(N4CCN(C)CC4)CC3)cc2)c2nc(C#N)ncc2Br)C1 (mixture of isomers) [Example 4, N′-(5-bromo-2-cyano-4-pyrimidinyl)-N′-(3-methylcyclopentyl)-4-{[4-(4-methyl-1-piperazinyl)-1-piperidinyl]methyl}benzohydrazide trifluoroacetate]",< 1 nM,1 to 2.5 nM,< 1.5 nM,< 1000 nM,,,
"CC1CCC(N(NC(=O)c2ccc(CN3CCN(CC4CCN(C)CC4)CC3)cc2)c2nc(C#N)ncc2Br)C1 (mixture of isomers) [Example 5, N′(5-bromo-2-cyano-4-pyrimidinyl)-N′-(3-methylcyclopentyl)-4-({4-[(1-methyl4-piperidinyl)methyl]-1-piperazinyl}methyl)benzohydrazide trifluoroacetate]",< 1 nM,15 to 150 nM,< 1.5 nM,< 1000 nM,,,
"CN1CCN(Cc2ccc(C(=O)NN(c3nc(C#N)ncc3Br)C3CCCC3)cc2)CC1 [Example 1, N′-(5-bromo-2-cyano-4-pyrimidinyl)-N′-cyclopentyl-4-[(4-methyl-1-piperazinyl)methyl]benzohydrazide trifluoroacetate]",< 1 nM,,< 1.5 nM,< 200 nM,,,
"CN1CCN(C2CCN(Cc3ccc(C(=O)NN(c4nc(C#N)ncc4Br)C4CCCCC4)cc3)CC2)CC1 [Example 17, N′-(5-bromo-2-cyano-4-pyrimidinyl)-N′-cyclohexyl-4-{[4-(4-methyl-1-piperazinyl)-1-piperidinyl]methyl}benzohydrazide trifluoroacetate]",< 1 nM,2.5 to 15 nM,< 1.5 nM,< 1000 nM,,,
"CN1CCCC(CN2CCN(Cc3cccc(C(=O)NN(c4nc(C#N)ncc4Br)C4CCCCC4)c3)CC2)C1 (stereo not shown) [Example 27, N′-(5-bromo-2-cyano-4-pyrimidinyl)-N′-cyclohexyl-3-({4-[(1-methyl-3-piperidinyl)methyl]-1-piperazinyl}methyl)benzohydrazide trifluoroacetate]",< 1 nM,2.5 to 15 nM,< 1.5 nM,< 1000 nM,,,
"CN1CCN(C2CCN(Cc3ccc(C(=O)NN(c4nc(C#N)ncc4Cl)C4CCCCC4)cc3)CC2)CC1 [Example 40, N′-(5-chloro-2-cyano-4-pyrimidinyl)-N′-cyclohexyl-4-{[4-(4-methyl-1-piperazinyl)-1-piperidinyl]methyl}benzohydrazide]",< 1 nM,,< 1.5 nM,< 200 nM,2.5 to 15 nM,,
"CN1CCN(C2CCN(Cc3ccc(C(=O)NN(c4nc(C#N)ncc4Cl)C4CCCCC4)cc3)CC2)CC1 [Example 41, N′-(5-chloro-2-cyano-4-pyrimidinyl)-N′-cyclohexyl-4-{([4-(4-methyl-1-piperazinyl)-1-piperidinyl]methyl}benzohydrazidedihydrochloride]",,,< 1.5 nM,< 200 nM,,,
"CN1CCN(Cc2ccc(-c3ccc(C(=O)NN(c4nc(C#N)ncc4Br)C4CCCCC4)cn3)cc2)CC1 [Example 44, N′-(5-bromo-2-cyano-4-pyrimidinyl)-N′-cyclohexyl-6-{4-[(4-methyl-1-piperazinyl)methyl]phenyl}-3-pyridinecarbohydrazide trifluoroacetate]",< 1 nM,2.5 to 15 nM,< 1.5 nM,< 200 nM,,,
"CN1CCN(Cc2ccc(-c3ccc(C(=O)NN(c4nc(C#N)ncc4Br)C4CCCC4)cn3)cc2)CC1 [Example 46, N′-(5-bromo-2-cyano-4-pyrimidinyl)-N′-cyclopentyl-6-{4-[(4-methyl-1-piperazinyl)methyl]phenyl}-3-pyridinecarbohydrazide trifluoroacetate]",< 1 nM,15 to 150 nM,< 1.5 nM,< 200 nM,,,
"CN1CCN(Cc2cccc(-c3cncc(C(=O)NN(c4nc(C#N)ncc4Br)C4CCCCC4)c3)c2)CC1 [Example 47, N′-(5-bromo-2-cyano-4-pyrimidinyl)-N′-cyclohexyl-5-{3-[(4-methyl-1-piperazinyl)methyl]phenyl}-3-pyridinecarbohydrazide trifluoroacetate]",< 1 nM,2.5 to 15 nM,< 1.5 nM,< 200 nM,,,
"CC(=O)N1CCC(N(NC(=O)c2ccc(CN3CCC(C(=O)N4CCN(C)CC4)CC3)cc2)c2nc(C#N)ncc2Br)CC1 [Example 49, N′-(1-acetyl-4-piperidinyl)-N′-(5-bromo-2-cyano-4-pyrimidinyl)-4-({4-[(4-methyl-1-piperazinyl)carbonyl]-1-piperidinyl}methyl)benzohydrazide trifluoroacetate]",< 1 nM,15 to 150 nM,< 17 nM,< 200 nM,,,
"CN1CCN(Cc2ccc(C(=O)NN(c3nc(C#N)ncc3Cl)C3CCCC3)cc2)CC1 [Example 50, N′-(5-chloro-2-cyano-4-pyrimidinyl)-N′-cyclopentyl-4-[(4-methyl-1-piperazinyl)methyl]benzohydrazide trifluoroacetate]",,15 to 150 nM,< 1.5 nM,< 200 nM,,< 1 nM,
"CN1CCN(Cc2ccc(C(=O)NN(c3nc(C#N)ncc3Cl)C3CCCCC3)cc2)CC1 [Example 51, N′-(5-chloro-2-cyano-4-pyrimidinyl)-N′-cyclohexyl-4-[(4-methyl-1-piperazinyl)methyl]benzohydrazide trifluoroacetate]",1 to 2.5 nM,15 to 150 nM,< 1.5 nM,< 200 nM,,,
"CN1CCN(c2ncc(C(=O)NN(c3nc(C#N)ncc3Cl)C3CCCC3)s2)CC1 [Example 77, N′-(5-chloro-2-cyano-4-pyrimidinyl)-N′-cyclopentyl-2-(4-methyl-1-piperazinyl)-1,3-thiazole-5-carbohydrazide trifluoroacetate]",< 1 nM,15 to 150 nM,,,,,15 to 150 nM
"CCN(CCCNC(=O)OC(C)(C)C)Cc1ccc(C(=O)NN(c2nc(C#N)ncc2Cl)C2CCCC2)cc1 [Example 81, 1,1-dimethylethyl{3-[[(4-{[2-(5-chloro-2-cyano-4-pyrimidinyl)-2-cyclopentylhydrazino]carbonyl}phenyl)methyl](ethyl)amino]propyl}carbamate]",< 1 nM,,,< 200 nM,2.5 to 15 nM,,
